Each structure is given as a SMILES string. Read-outs that look alike come from different tables or passages of the source.

For one series, the system named is serum KC/CXCL1. Briefly: Serum KC/CXCL1 levels in vivo in BALB/c mice. The settings on record: 0.2-200 μg/mouse oral, 2 hours. The protocol:
(§1) Assay ofserum DPP-IV inhibition and KC/CXCL1 levels in vivo. […] Each mouse received a single administration of each amino boronic dipeptide or saline, and blood samples were withdrawn from mice 2 hours later.
Serum concentration of mouse KC/CXCL1 was determined by Quantikine enzyme-linked immunosorbent assay (ELISA; R&D Systems, Minneapolis, Minn.) according to the manufacturer's instructions. ELISA was performed in duplicate for each sample.

The next series concerns Lewis rats. The protocol: (§2) Serum DPP-IV inhibition and observation of acute toxicity of amino boronic dipeptides in Lewis rats. […] After observations were completed or at the onset of a moribund state, humane euthanasia was performed by asphyxiation in 100% CO2.
For series [1], the target named is T1, serum DPP-IV (Rattus norvegicus, UniProt P14740).
T1 construct: from tissue; host or cells: serum of Lewis rats dosed in vivo
T1 sequence (P14740 37-767 limits assumed): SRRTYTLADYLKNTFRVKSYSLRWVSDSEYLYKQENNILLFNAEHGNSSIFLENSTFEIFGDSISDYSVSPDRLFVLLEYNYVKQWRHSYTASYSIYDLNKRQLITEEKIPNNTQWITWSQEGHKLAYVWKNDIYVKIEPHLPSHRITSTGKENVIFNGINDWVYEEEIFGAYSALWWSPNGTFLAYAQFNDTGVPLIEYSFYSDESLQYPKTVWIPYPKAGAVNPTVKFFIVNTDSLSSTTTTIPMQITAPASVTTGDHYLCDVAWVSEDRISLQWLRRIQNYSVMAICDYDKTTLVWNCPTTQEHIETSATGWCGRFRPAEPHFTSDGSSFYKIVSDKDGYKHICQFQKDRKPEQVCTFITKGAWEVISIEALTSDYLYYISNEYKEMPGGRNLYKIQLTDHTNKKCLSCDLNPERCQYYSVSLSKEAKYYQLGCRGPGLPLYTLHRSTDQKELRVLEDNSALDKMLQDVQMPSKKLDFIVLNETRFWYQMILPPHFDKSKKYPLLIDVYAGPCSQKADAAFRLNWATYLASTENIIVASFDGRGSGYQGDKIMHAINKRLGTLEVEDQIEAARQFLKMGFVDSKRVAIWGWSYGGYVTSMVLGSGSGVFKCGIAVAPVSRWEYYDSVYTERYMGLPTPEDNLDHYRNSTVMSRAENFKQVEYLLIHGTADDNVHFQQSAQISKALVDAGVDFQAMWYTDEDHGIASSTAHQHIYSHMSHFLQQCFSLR
Briefly: Serum DPP-IV inhibition in Lewis rats. It is filed as in vivo. The settings on record: single oral administration, 2 hours. The procedure: (§3) Assay of serum DPP-IV inhibition in vivo.
as §2

In series [2] the target is T2, soluble recombinant human DPP-IV (Homo sapiens, UniProt P27487).
T2 construct: immunoglobulin kappa light chain secretion signal (pSecTag2-B) (N, cleaved yes); made in house; host or cells: 293T cells, transient transfection; culture supernatant used unpurified
T2 sequence (P27487 39-766): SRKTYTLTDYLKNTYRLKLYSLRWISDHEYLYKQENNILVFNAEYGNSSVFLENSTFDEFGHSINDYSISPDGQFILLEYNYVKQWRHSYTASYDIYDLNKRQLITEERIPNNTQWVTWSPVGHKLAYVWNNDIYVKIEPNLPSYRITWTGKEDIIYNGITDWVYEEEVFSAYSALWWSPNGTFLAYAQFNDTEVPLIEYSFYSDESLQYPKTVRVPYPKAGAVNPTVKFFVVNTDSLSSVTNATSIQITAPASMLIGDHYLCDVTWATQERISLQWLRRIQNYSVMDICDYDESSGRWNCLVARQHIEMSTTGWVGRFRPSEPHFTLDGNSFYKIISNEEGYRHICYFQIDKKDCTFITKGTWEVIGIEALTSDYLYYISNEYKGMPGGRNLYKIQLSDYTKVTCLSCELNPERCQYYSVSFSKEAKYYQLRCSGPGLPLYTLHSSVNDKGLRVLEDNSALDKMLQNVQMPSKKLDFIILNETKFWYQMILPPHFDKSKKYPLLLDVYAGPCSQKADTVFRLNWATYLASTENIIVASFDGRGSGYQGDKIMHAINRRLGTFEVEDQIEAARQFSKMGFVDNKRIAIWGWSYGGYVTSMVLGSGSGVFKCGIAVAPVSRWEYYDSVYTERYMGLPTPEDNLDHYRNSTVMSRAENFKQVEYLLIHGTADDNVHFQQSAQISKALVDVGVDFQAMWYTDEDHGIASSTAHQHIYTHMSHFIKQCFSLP
In words: In vitro inhibition of recombinant soluble DPP-IV by amino boronic dipeptides. The class given is biochemical. The settings on record: assayed at 3 minutes, 78 minutes and 16 hours after addition of Ala-Pro-AFC. An excerpt: Production of soluble recombinant human DPP-IV. Based on information on the N-terminus of serum DPP-IV (15), a truncated DPP-IV was engineered in which a signal/leader sequence was joined to the residue in DPP-IV corresponding to the N-terminus of serum DPP-IV to allow secretion. The cDNA encoding the desired truncated human DPP-IV dimer enzyme was engineered into the mammalian secretion vector pSecTag2 (Cat# V900-20, InVitrogen Corporation). The vector, available in A, B or C versions, representing three possible phases for gene fusion, contained an immunoglobulin-kappa light chain secretion signal followed by a selection of restriction sites for gene insertion. The fusion required engineering a restriction site upstream of the chosen fusion amino acid in the 5′ end of the DPP-IV dimer enzyme nucleic acid in phase with the chosen restriction site (Sfi I) in the vector secretion sequence. The chosen fusion amino acid in the 5′ end of the DPP-IV (Ser39) was 3′ of the trans-membrane anchoring domain. The pSecTag2 version B and its Sfi I restriction site was chosen for the fusion because it minimizes the additional N-terminal, vector-encoded residues in the mature secreted protein.
Construction of the fusion was as follows. First, total RNA was isolated from the Caco-2 colorectal carcinoma cell line (ATCC HTB-37) by standard Trizol/phenol /chloroform methodology. The purified RNA (approx. 2.5 μg in a 20 μl reaction) was used to make cDNA using oligo-dT primer and a commercial reverse transcription (RT) kit (InVitrogen). […] The following thermal cycler program was used: 94° C. for 45 sec. initial denaturation, then 30 cycles of 94° C., 10 sec.; 48° C., 6 sec.; 60° C., 4 min; followed by 5-min. extension at 72° C. after cycling.
DNA from the plasmid encoding DPP-IV dimer enzyme was prepared on an approximately 400 μg scale from overnight 30 ml cultures in Luria broth with 100 μg ampicillin per ml using a commercial kit (Qiagen Maxiprep Kit).
In vitro assay of enzymatic activity of recombinant soluble DPP-IV and inhibition by amino boronic dipeptides. The assay reaction mixture consisted of 135 μl 50 mM HEPES/Na buffer pH 7.6, 140 mM NaCl, 10-15 μl enzyme-containing culture supernatant, dipeptide substrate Ala-Pro-(7-amino-4-trifluoromethyl coumarin) (Ala-Pro-AFC; Enzyme System Products, Dublin, Calif.) at typically 0.1-1 mM added from a 100 or 400 mM stock in dimethyl formamide. The reaction mixture was incubated at room temperature, and production of the fluorescent AFC product was measured in a fluorometer (excitation, 400 nm; emission 505 nm), either by continuous monitoring or after termination with a one to one-tenth volume of 1-M sodium acetate, pH 4.5. Fluorometric reading were made with a […] Spectra Max GeminiXS capable of reading 96-well microtiter plates. The inhibitory activity of amino boronic dipeptides was investigated by preincubation of assay reaction mixtures with varying concentrations of each compound for 10 minutes before the addition of the substrate Ala-Pro-AFC.

Series [3] has as its system human bone marrow stromal cells. In words: G-CSF supernatant levels in human bone marrow stromal cell cultures. The following applies: 1 to 10^4 nM, 24 hours in vitro. It is filed as cell-based. The protocol:
Human bone marrow stromal cell cultures. Samples of normal human bone marrow were purchased from Cambrex Bioproducts (Walkersville, Md.) and mononuclear cells were purified over Ficoll-Hypaque (Nycomed, Oslo, Norway). Human stromal layers were established by seeding 4×10^7 mononuclear cells into T75 flasks (Coming) containing 20 ml MyeloCult medium (Stem Cell Technologies, Vancouver, BC) supplemented with 10^−6 M hydrocortisone (Sigma) and incubation at 37° C. in 100% humidified 5% CO2 in air. After one week, half the medium was exchanged, and the cultures incubated for approximately one week more, after which time, a semi-confluent cell layer was formed. Stromal cells were harvested by trypsinization using standard technique and 10^5 cells/well were seeded in multi-well plates in 1 ml of fully supplemented DMEM (InVitrogen, Carlsbad, Calif.). […] Multiwell cultures without the addition of amino boronic dipeptides served as controls. […] Supernatant concentrations of human G-CSF were determined by Quantikine enzyme-linked immunosorbent assay (ELISA; R&D Systems, Minneapolis, Minn.) according to the manufacturer's instructions. […] The effect of each amino boronic dipeptide on the level of supernatant G-CSF was determined by calculating a stimulation index (SI): SI=(mean G-CSF concentration in culture with amino boronic dipeptide)/(mean G-CSF concentration in control culture).

Series [4] deals with T3, serum DPP-IV (Mus musculus, UniProt P28843).
T3 construct: from tissue; host or cells: serum of BALB/c mice dosed orally
T3 sequence (P28843 37-760 limits assumed): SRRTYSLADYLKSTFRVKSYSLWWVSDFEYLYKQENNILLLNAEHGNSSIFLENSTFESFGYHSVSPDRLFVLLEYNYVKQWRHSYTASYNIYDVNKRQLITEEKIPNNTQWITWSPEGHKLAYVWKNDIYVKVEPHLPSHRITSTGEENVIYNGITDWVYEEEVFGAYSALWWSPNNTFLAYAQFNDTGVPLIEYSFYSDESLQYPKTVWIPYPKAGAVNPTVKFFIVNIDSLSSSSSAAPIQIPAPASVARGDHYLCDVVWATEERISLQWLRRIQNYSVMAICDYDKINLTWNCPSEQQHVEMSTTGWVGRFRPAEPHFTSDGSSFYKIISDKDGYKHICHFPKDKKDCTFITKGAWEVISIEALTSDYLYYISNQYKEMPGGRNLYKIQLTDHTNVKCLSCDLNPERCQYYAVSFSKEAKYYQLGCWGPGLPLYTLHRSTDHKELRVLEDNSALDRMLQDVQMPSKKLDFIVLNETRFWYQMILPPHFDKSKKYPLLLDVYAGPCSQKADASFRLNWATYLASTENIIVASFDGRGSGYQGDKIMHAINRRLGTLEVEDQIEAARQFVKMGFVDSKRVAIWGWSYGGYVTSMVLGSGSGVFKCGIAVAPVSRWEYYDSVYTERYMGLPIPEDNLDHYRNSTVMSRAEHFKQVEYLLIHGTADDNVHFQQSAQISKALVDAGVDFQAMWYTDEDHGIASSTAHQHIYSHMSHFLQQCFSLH
Briefly: Serum DPP-IV inhibition in vivo in BALB/c mice after oral gavage. The settings on record: 2 hours. The protocol:
as §3, §1
Serum DPP-IV activity was determined by reaction of a 10 μl volume of serum with 0.1 mM Ala-Pro-AFC (Enzyme System Products, Dublin, Calif.) in a 100 μl volume of 50 mM HEPES/Na buffer pH 7.6, 140 mM NaCl. […] Serum DPP-IV activity was expressed as fluorescent units (FU).

The test system of the next series is ob/ob mice. Briefly: Mouse oral glucose tolerance test (OGTT). It is filed as in vivo. The procedure:
Protocol for mouse oral glucose tolerance test (OGTT). The day of oral-glucose challenge was defined as day 0. […] Agents were administered by oral gavage. Mice were restricted to a diet of 50% of their individual calculated food intake from day −1 onwards. On day 0, blood glucose was measured at t−15 min. immediately followed by drug administration. At time point 0, glucose was administered by oral gavage (1 g/kg), and blood glucose was measured at time points 0, 30, 60, 120 and 240 minutes. Means±SE were calculated from the data of individual mice in drug-treatment groups 1 and 2.

A further series has as its system Zucker fa/fa rats. Briefly: Rat oral glucose tolerance test (OGTT): glucose, insulin, GLP-1. The class given is in vivo. The settings on record: 10 μmol/kg oral. The source says: Protocol for rat oral glucose tolerance test (OGTT). […] On days −11 to −8, rats were fitted with intra-arterial catheters under light isoflurane anesthesia. […] From 12:00 a.m.
Setting [5] is: Lewis rats, single dose, observed 5 days.

In the case of `CC(C)[C@H](N)C(=O)N1CCC[C@H]1B(O)O` [Val-boroPro], the “Effect on serum levels of KC/CXCL1” value in the series with serum KC/CXCL1 is recorded as “stimulate increased serum levels of KC/CXCL1 in a dose-dependent manner”. The “MTD (maximum tolerated dose)” value in the series with Lewis rats (setting [5]) is 20 µg/kg. At serum DPP-IV [1], the “ID50 (dose causing a 50% reduction in serum DPP-IV activity from baseline)” value came to 0.009 mg/kg.
Regarding `NC(=O)CC[C@H](N)C(=O)N1CCC[C@H]1B(O)O` [Gln-boroPro], the “MTD (maximum tolerated dose)” value in the series with Lewis rats (setting [5]) was “≧800 μg/kg”.
In the case of `NC(N)=NCCC[C@H](N)C(=O)N1CCC[C@H]1B(O)O` [Arg-boroPro], in series [2], the “Persistence / reversibility of DPP-IV inhibition” value was “more rapidly reversible”. Also, the “MTD (maximum tolerated dose)” value with Lewis rats (setting [5]) was “≧2,000 μg/kg”.
Take `NCCCC[C@H](N)C(=O)N1CCC[C@H]1B(O)O` [Lys-boroPro]: the “Persistence / reversibility of DPP-IV inhibition” value in series [2] is “more rapidly reversible”. The “MTD (maximum tolerated dose)” value with Lewis rats (setting [5]) is reported as “≧2,000 μg/kg”.
For `CSCC[C@H](N)C(=O)N1CCC[C@H]1B(O)O` [Met-boroPro], the “MTD (maximum tolerated dose)” value with Lewis rats (setting [5]) was 160 µg/kg.
In the case of `C[C@H](N)C(=O)N1CCC[C@H]1B(O)O` [Ala-boroPro], in the series with Lewis rats (setting [5]), the “MTD (maximum tolerated dose)” value is “≧2,000 μg/kg”.
With `CC(C)C[C@H](N)C(=O)N1CCC[C@H]1B(O)O` [Leu-boroPro], the “Persistence / reversibility of DPP-IV inhibition” value in series [2] is given as “more rapidly reversible”. In series [3], the “Stimulation of G-CSF levels in culture supernatants (stimulation index)” value is on record as “stimulate increased levels of G-CSF”. For the same compound, in the series with serum KC/CXCL1, the “Effect on serum levels of KC/CXCL1” value is on record as “stimulate increased serum levels of KC/CXCL1 in a dose-dependent manner”. In the series with Lewis rats (setting [5]), the “MTD (maximum tolerated dose)” value turned out to be 200 µg/kg.
`C[C@@H](O)[C@H](N)C(=O)N1CCC[C@H]1B(O)O` [Thr-boroPro]: the “MTD (maximum tolerated dose)” value in the series with Lewis rats (setting [5]) is 800 µg/kg.
As for `CC[C@H](C)[C@H](N)C(=O)N1CCC[C@H]1B(O)O` [Ile-boroPro], the “Persistence / reversibility of DPP-IV inhibition” value in series [2] is listed as “sustained DPP-IV inhibition”. The “Stimulation of G-CSF levels in culture supernatants (stimulation index)” value in series [3] is reported as “stimulate increased levels of G-CSF”. The “Effect on serum levels of KC/CXCL1” value with serum KC/CXCL1 is “stimulate increased serum levels of KC/CXCL1 in a dose-dependent manner”. The “MTD (maximum tolerated dose)” value with Lewis rats (setting [5]) was 120 µg/kg.
As for `O=C(C1CCCN1)N1CCCC1B(O)O` (stereo not drawn) [Pro-boroPro], the “Persistence / reversibility of DPP-IV inhibition” value in series [2] was “more rapidly reversible”. Moreover, the “MTD (maximum tolerated dose)” value with Lewis rats (setting [5]) is on record as “≧2,000 μg/kg”.
As to `N[C@@H](Cc1ccccc1)C(=O)N1CCC[C@H]1B(O)O` [Phe-boroPro], the “Persistence / reversibility of DPP-IV inhibition” value in series [2] was “more rapidly reversible”.
Turning to `N[C@@H](CO)C(=O)N1CCC[C@H]1B(O)O` [Ser-boroPro], the “MTD (maximum tolerated dose)” value with Lewis rats (setting [5]) is 4,000 μg/kg.
Turning to `N[C@@H](CCC(=O)O)C(=O)N1CCC[C@H]1B(O)O` [Glu-boroPro], the “Persistence / reversibility of DPP-IV inhibition” value in series [2] was “sustained DPP-IV inhibition”. Besides, the “Inhibition of serum DPP-IV activity” value on serum DPP-IV [4] (20 and 200 μg doses per mouse, oral) is listed as “maximally inhibited serum DPP-IV activity”. For the same compound, the “ID50 (dose required to reduce serum DPP-IV activity by 50% of baseline)” value on serum DPP-IV [4] (BALB/c mice, single oral dose) came to 1 μg/mouse. The “Effect on serum levels of KC/CXCL1” value with serum KC/CXCL1 was “failed to affect serum levels of KC/CXCL1 at any of the doses tested”. The “MTD (maximum tolerated dose)” value in the series on Lewis rats (Lewis, rat, in vivo, 5 days) is 15,000 μg/kg. The “Glucose excursion post oral glucose challenge” value in the series with ob/ob mice (1.0 μmol/kg oral, 15 minutes prior to glucose 1 g/kg) was “reduced”. Further, in the series on ob/ob mice (single 1.0 μmol/kg dose, ANOVA), the “Anti-glycemic effect (area under the blood glucose curve)” value is recorded as “significant (P=0.0010)”. Also, in the series on Zucker fa/fa rats, the “Blood plasma level of GLP-1 following oral glucose challenge” value is listed as “increased” and the “Blood plasma level of insulin following oral glucose challenge” value is listed as “increased”. Further, the “Blood glucose excursion after oral glucose challenge” value with Zucker fa/fa rats (glucose 2 g/kg) is “reduced”.

Source of the values: US20070072830A1, “Methods for treating diabetes” (Point Therapeutics, Inc., priority 2004, published 2007).
